Columns and labels:
[1] = tested on: spleen lymphocytes; experiment: ELISA detection of IFN-γ and IL-12 after stimulation of spleen lymphocytes in vitro by T7-EA; format: cell-based, mice; conditions: 24 hours, FIGS. 3A-3B
Procedure: The mice are broken the neck to death and soaked in 75% ethanol for 5 minutes, and then placed on the super-clean bench for taking the spleen out with a sterile operation. The spleen is grinded in the 35 mm culture dish containing 4-5 ml murine lymphocyte separating medium. Then obtained cell suspension is transferred to the 15 ml centrifuge tube in which 500 μl RPMI-1640 is gently added along the tube wall for enclosure. After that the centrifuge tube is centrifuged for 30 minutes at 800 G. Then the centrifuged layer containing the lymphocytes is further centrifuged at 250 G for 10 minutes in a centrifuge tube containing 10 ml culture medium. The supernatant is discarded and the cell pellet is dissipated by the culture medium and counted. The spleen leukomonocytes are deposited on the 24-well plate with a cell density of 1×10^6/ml. T7-EA with corresponding concentrations (0, 0.001, 0.01, 0.1, 1, 2, 4, 8, 16, 20, 24 μmol/L) is added into each well and incubated for 24 hours in the cell culture box of 5% CO2 and saturated humidity at 37° C. The supernatant is collected on the second day and tested according to the operation manual of the ELISA kit. The supernatants are collected after stimulating the spleen lymphocytes with T7-EA of different concentrations for 24 hours, and the ELISA test results are shown in FIGS. 3A-3B.

[2] = tested on: murine melanoma cell line B16f10; experiment: Anti tumor experiment of T7-EA in vivo (melanoma-bearing mice); set-up: species or system BALB/c mice; conditions: T7-EA 10 mg/Kg once every three days for 2 weeks; vs control group, T7 group and EA group (P<0.01), FIG. 5
Description: The used materials comprise animal and cell strain BALB/c mice, female, 5-6 weeks old, provided by the Guangdong Medical Laboratory Animal Center; and murine melanoma cell line B16f10 purchased from Shanghai ATCC Cell Bank.
24 4-5 weeks old female BALB/c mice are loaded with 5×10^5 tumor cells/each one after 1 weeks of quarantine at SPF level in an animal room. The mice bearing tumors are randomly divided into 75% ethanol control group, T7 group, EA group and T7-EA group, when the diameter of the tumor reaches 5 mm. The corresponding drugs are given to each group with a dosage of T7-EA 10 mg/Kg, T7 5 mg/kg, EA 12.5 mg/kg once every three days for 2 weeks. During the treatment, the tumor growth is observed by measuring the tumor size every three days. The tumor surface area is calculated according to the following formula: S=tab (wherein a represents the long diameter, while b represents the short diameter). The 24 mice are loaded with 5×10^5 tumor cells/each one after 7 days of quarantine at SPF level in an animal room. The mice bearing tumors are randomly divided into 75% ethanol control group, T7 group, EA group and T7-EA group, when the diameter of the tumor reaches 5 mm. The corresponding drugs are given to each group once every three days for 2 weeks, and the tumor size is measured every three days.

[3] = tested on: B16f10 melanoma cells; experiment: CTL experiment (LDH method), spleen lymphocytes of treated mice against B16f10; format: in vivo; conditions: effector:target 50:1, 4 hours, after two weeks of administration; vs control, T7 and EA groups (P<0.05), FIG. 6
Procedure: The activity of cytotoxic T lymphocyte (CTL) is determined by the method of Lactic dehydrogenase (LDH) with CytoTox96Promega kits. The mice in the experimental group are broken the neck to death. The spleen lymphocytes are taken as the effector cells while the B16f10 melanoma cells are used as the target cells. The effector cells and the target cells are mixed up with a ratio of 50:1 and cultured for 4 hours. The specific operation steps can be implemented according to the operation manual, while the kill rate can calculated as follows: the killing rate (%)=(OD value of the experimental group−pontaneous OD value of the effector cells−pontaneous OD value of the target cells)/(Maximum OD value of the target cells−pontaneous OD value of the target cells)×100%. The mice in the experimental group are broken the neck to death after two weeks of administration. The spleen lymphocytes are taken as the effector cells while the B16f10 melanoma cells are used as the target cells. The effector cells and the target cells are spread onto 96-well U-shape plate according to a ratio of 50:1 and cultured together for 4 hours.

[4] = tested on: spleen lymphocytes; experiment: ELISA detection of cytokines IFN-γ and IL-12 generated by spleen lymphocytes after stimulation of T7-EA; format: cell-based, mice; conditions: 24 hours
Procedure: (§1) The mice are broken the neck to death and soaked in 75% ethanol, and then placed on the super-clean bench for taking the spleen out with a sterile operation. The spleen is grinded in the 35 mm culture dish containing 4-5 ml Mouse1×lymphocyte separating medium. Then separating medium suspended with spleen cells is transferred to the 15 ml centrifuge tube and enclosed with 500 μl RPMI-1640, After that the centrifuge tube is centrifuged at room temperature for 30 minutes at 800 G. Then the middle buffy coat is placed into a centrifuge tube containing 10 ml culture medium for being overthrown and washed. After that, the centrifuge tube is further centrifuged at 250 G for 10 minutes at room temperature. The supernatant is discarded and the cell pellet is dissipated by the culture medium and counted. The spleen leukomonocytes are deposited on the 24-well plate with a final cell density of 1×10^6/ml. T7-EA with corresponding concentrations (0, 0.01, 0.1, 0.5, 1, 2, 4, 8, 16, 20, 24 μmol/L) is added and incubated for 24 hours in the cell culture box. The supernatant is collected on the second day and tested according to the operation manual of the ELISA kit. […] When the T7-EA has a concentration ≤4 μmol/L, better effects can be obtained. Accordingly, 4 μmol/L is the effective concentration of the T7-EA.

[5] = tested on: spleen lymphocytes; experiment: Lymphocyte proliferation experiment (CCK8); format: cell-based, mice; conditions: 24 hours; for proliferation of the lymphocytes: CCK8, FIG. 4
Procedure: The activation and proliferation abilities of T7-EA on the lymphocytes are detected. The mice are broken the neck to death and soaked in 75% ethanol, and then placed on the super-clean bench for taking the spleen out with a sterile operation. The spleen is grinded in the 35 mm culture dish containing 4-5 ml murine lymphocyte separating medium. Then obtained cell suspension is transferred to the 15 ml centrifuge tube in which 500 μl RPMI-1640 is gently added along the tube wall for enclosure. After that the centrifuge tube is centrifuged for 30 minutes at 800 G. Then the centrifuged layer containing the lymphocytes is further centrifuged at 250 G for 10 minutes in a centrifuge tube containing 10 ml culture medium. The supernatant is discarded and the cell pellet is dissipated by the culture medium and counted. The spleen leukomonocytes are deposited on the 96-well plate with a cell density of 2×10^5/each well. T7-EA with corresponding concentrations (0, 0.001, 0.01, 0.1, 1, 2, 4, 8, 16, 20, 24 μmol/L) is added onto the 96-well plate and incubated for 24 hours in the cell culture box of 5% CO2 and saturated humidity at 37° C. The effect of the T7-EA on the proliferation of the lymphocytes is detected by CCK8 after the 24 hours incubation according to the operation manual of the CCK8 kits, and the results are shown in FIG. 4. […] When the T7-EA has a concentration of 4 μmol/L, the relative proliferation rate is about 50%.

[6] = tested on: spleen lymphocytes; experiment: ELISA detection of cytokines IFN-γ and IL-12 generated by spleen lymphocytes after stimulation of T7-EA-ROR1; format: cell-based, murine; conditions: final T7-EA concentration 4 μmol/L, T7-EA:ROR1 molar ratio 1:1, FIGS. 10A-10B
Procedure: as §1, with “T7-EA. […]” for “T7-EA.”

[7] = tested on: protein of mammary cancer 4T1 cells; experiment: Whole-cell antibody detection (serum IgG ELISA); format: in vivo, mice; conditions: blood collected sixth day after each of 4 immunotherapies, FIG. 12
Procedure: The protein of mammary cancer 4T1 cells is extracted and the concentration of which is also measured in accordance with the operation manual of the BCA protein quantitative kits. The extracted protein is used as the envelope antigen. The venous blood of mice is collected sixth days after each immunotherapy, and its supernatant is collected for 4 times. The serum antibody is measured in accordance with the operation manual of the ELISA kit.

[8] = tested on: lymphocyte; conditions: cited from earlier work
[9] = tested on: dendritic cells derived from bone marrow cells; conditions: in vitro; cited from earlier work
[10] = higher concentration (>4 μmol/L)
[11] = lower concentration (≤4 μmol/L)

| Structure (SMILES) | ability for activating lymphocytes (generation of IFN-γ and IL-12) [1, 10] | ability for activating lymphocytes (generation of IFN-γ and IL-12) [1, 11] | growth of the tumor (tumor surface area) [2] | immune killing effect (CTL killing rate) [3] | generation of cytokines IFN-γ and IL-12 by lymphocytes ([4]; 0-24 μmol/L, FIGS. 8A-8B) | effective concentration of the T7-EA ([4]; IFN-γ and IL-12 induction) [µmol/L] | relative proliferation rate ([5]; concentration of 4 μmol/L) | lethal effect on the lymphocytes ([5]; higher concentration (>4 μmol/L), CCK8) | proliferation of the lymphocytes [5, 10] | proliferation of the lymphocytes [5, 11] | generation of cytokines IFN-γ and IL-12 by spleen lymphocytes [6] | level of IgG antibody in the mice sera [7] | production of inflammatory mediators IFN-γ and IL-12 [8] | production of inflammatory mediators TNF-a and IL-12 [9] |
| --- | --- | --- | --- | --- | --- | --- | --- | --- | --- | --- | --- | --- | --- | --- |
| C=C(CC)C(=O)c1ccc(OCC(=O)NCc2ccc(Cn3c(O)nc4c(N)nc(OCCOC)nc43)cc2)c(Cl)c1Cl [T7-EA] | decreased ability for activating lymphocytes | stronger ability for activating lymphocytes | significantly inhibited the growth of the tumor | stronger immune killing effect on melanoma | can activate the lymphocytes and induce the lymphocytes to generate cytokines IFN-γ and IL-12 | 4 | about 50% | no lethal effect on the lymphocytes | no effect on the proliferation of the lymphocytes | can promote the proliferation of the lymphocytes | can induce the spleen lymphocytes to generate cytokines IFN-γ and IL-12 | increases gradually with the increase of immunization times | – | – |
| COCCOc1nc(N)c2nc(O)n(Cc3ccc(CN)cc3)c2n1 [T7] | – | – | – | – | – | – | – | – | – | – | – | – | inflammatory mediators, such as IFN-γ and IL-12 can also be produced rapidly | inflammatory mediators, such as TNF-a and IL-12 can be produced rapidly |

Source: patent US10711005B2, “Compound I and compound II as well as preparation methods therefor and application thereof” (SHENZHEN UNIVERSITY, priority 2015, dated 2020)
